≈ marks a conversion by molar mass, not a printed value.
Tests used:
[1] = system: Enterococcus faecium; assay: Antibacterial activity against vancomycin-resistant Enterococcus faecium ATCC 700221 after 16 to 18 hrs by broth microdilution method; assay type: functional
[2] = system: Staphylococcus aureus; assay: Antibacterial activity against methicillin-resistant Staphylococcus aureus BAA-1707 after 16 to 18 hrs by broth microdilution method; assay type: functional
[3] = system: Staphylococcus epidermidis; assay: Antibacterial activity against methicillin-resistant Staphylococcus epidermidis ATCC 35984 after 16 to 18 hrs by broth microdilution method; assay type: functional
[4] = system: HeLa; assay: Cytotoxicity against human HeLa cells after 24 hrs by LDH release assay; assay type: cell-based
[5] = system: Staphylococcus epidermidis; assay: Potency index, ratio of TPEN MIC to compound MIC for antibacterial activity against methicillin-resistant Staphylococcus epidermidis ATCC 35984; assay type: functional
[6] = Selectivity ratio of MIC for methicillin-resistant Staphylococcus aureus BAA-1707 to MIC for methicillin-resistant Staphylococcus epidermidis ATCC 35984; assay type: functional
[7] = Selectivity ratio of MIC for vancomycin-resistant Enterococcus faecium ATCC 700221 to MIC for methicillin-resistant Staphylococcus epidermidis ATCC 35984; assay type: functional
[8] = system: Staphylococcus aureus; assay: Potency index, ratio of TPEN MIC to compound MIC for antibacterial activity against methicillin-resistant Staphylococcus aureus BAA-1707; assay type: functional
[9] = Selectivity index, ratio of IC50 for cytotoxicity against human HeLa cells to MIC for antibacterial activity against methicillin-resistant Staphylococcus epidermidis ATCC 35984; assay type: toxicity, cell-based; settings: read-out: Selectivity Index
[10] = system: Staphylococcus epidermidis; assay: Bactericidal activity against methicillin-resistant Staphylococcus epidermidis ATCC 35984 planktonic cells after 24 hrs by CBD assay; assay type: functional; settings: ATCC 35984, 24 h
[11] = Hemolytic activity against human RBC at 200 uM after 1 hr relative to control; assay type: ADME, cell-based, Erythrocyte; settings: red blood cells (erythrocytes), read-out: Activity
[12] = system: Staphylococcus epidermidis; assay: Antibiofilm activity against methicillin-resistant Staphylococcus epidermidis ATCC 35984 after 24 hrs by CBD assay; assay type: functional
[13] = system: Enterococcus faecium; assay: Antibiofilm activity against vancomycin-resistant Enterococcus faecium ATCC 700221 after 24 hrs by CBD assay; assay type: functional
[14] = system: Staphylococcus aureus; assay: Antibiofilm activity against methicillin-resistant Staphylococcus aureus BAA-1707 after 24 hrs by CBD assay; assay type: functional
[15] = system: Staphylococcus aureus; assay: Bactericidal activity against methicillin-resistant Staphylococcus aureus BAA-1707 planktonic cells after 24 hrs by CBD assay; assay type: functional; settings: BAA-1707, 24 h
[16] = system: Enterococcus faecium; assay: Bactericidal activity against vancomycin-resistant Enterococcus faecium ATCC 700221 planktonic cells after 24 hrs by CBD assay; assay type: functional; settings: ATCC 700221, 24 h

SMILES: OCc1cn(Cc2ccc3c(Br)cc(Br)c(O)c3n2)nn1
- MIC [1]: > 100 µM
- MIC [2]: > 100 µM
- MIC [3]: > 100 µM

SMILES: NCCOCCOCCNCc1ccc2c(Br)cc(Br)c(O)c2n1
- MIC [1]: 50 µM (≈ 23.2 µg/mL)
- MIC [2]: 37.5 µM (≈ 17.4 µg/mL)
- MIC [3]: 25 µM (≈ 11.6 µg/mL)

SMILES: COCCOCc1ccc2c(Br)cc(Br)c(O)c2n1
- MIC [3]: 1.56 µM (≈ 0.61 µg/mL)
- IC50 [4]: > 100 µM

SMILES: C#CCNCc1ccc2c(Br)cc(Br)c(O)c2n1
- MIC [1]: 1.56 µM (≈ 0.577 µg/mL)
- Ratio [5]: 16 - 42
- Selectivity ratio [6]: > 2
- Selectivity ratio [7]: > 2
- MIC [2]: 3.13 µM (≈ 1.16 µg/mL)
- Ratio [8]: 16 - 42
- MIC [3]: 0.3 µM (≈ 0.111 µg/mL)
- selectivity ratio [9]: > 83
- IC50 [4]: > 25 µM

SMILES: Oc1c(Br)cc(Br)c2ccc(CN3CCNCC3)nc12
- MIC [1]: 50 µM (≈ 20.1 µg/mL)
- MIC [2]: 25 µM (≈ 10 µg/mL)
- MIC [3]: 12.5 µM (≈ 5.01 µg/mL)

SMILES: CCCCOCc1ccc2c(Br)cc(Br)c(O)c2n1
- MBC [10]: 37.5 µM (≈ 14.6 µg/mL)
- hemolysis at 1 h, 200 µM [11]: 2.8%
- MIC [1]: 12.5 µM (≈ 4.86 µg/mL)
- Ratio [5]: 16 - 42
- Selectivity ratio [6]: > 2
- Selectivity ratio [7]: > 2
- MIC [2]: 2.35 µM (≈ 0.914 µg/mL)
- Ratio [8]: 16 - 42
- MIC [3]: 0.3 µM (≈ 0.117 µg/mL)
- MBEC [12]: 75 µM
- selectivity ratio [9]: > 167
- IC50 [4]: > 50 µM

SMILES: CC(=O)NC[C@H]1CN(c2ccc(N3CCOCC3)c(F)c2)C(=O)O1 [LINEZOLID]
- MIC [1]: 3.13 µM (≈ 1.06 µg/mL)
- MIC [2]: 12.5 µM (≈ 4.22 µg/mL)
- MIC [3]: 3.13 µM (≈ 1.06 µg/mL)

SMILES: CC(C)(C)OC(=O)NCCOCCOCCNCc1ccc2c(Br)cc(Br)c(O)c2n1
- MIC [1]: 6.25 µM (≈ 3.52 µg/mL)
- MIC [2]: 12.5 µM (≈ 7.04 µg/mL)
- MIC [3]: 3.13 µM (≈ 1.76 µg/mL)

SMILES: COCCOCCOCc1ccc2c(Br)cc(Br)c(O)c2n1
- MBEC [13]: 2.35 µM
- MBC [10]: 25 µM (≈ 10.9 µg/mL)
- hemolysis at 1 h, 200 µM [11]: 4.1%
- MIC [1]: 3.13 µM (≈ 1.36 µg/mL)
- MBEC [14]: 200 µM
- Ratio [5]: 16 - 42
- Selectivity ratio [6]: > 2
- Selectivity ratio [7]: > 2
- MBC [15]: 50 µM (≈ 21.8 µg/mL)
- MIC [2]: 2.35 µM (≈ 1.02 µg/mL)
- Ratio [8]: 16 - 42
- MIC [3]: 0.78 µM (≈ 0.339 µg/mL)
- MBEC [12]: 75 µM
- selectivity ratio [9]: > 128
- IC50 [4]: > 100 µM
- MBC [16]: 6.25 µM (≈ 2.72 µg/mL)

SMILES: CCCNCc1ccc2c(Br)cc(Br)c(O)c2n1
- MIC [1]: 3.13 µM (≈ 1.17 µg/mL)
- MIC [2]: 2.35 µM (≈ 0.879 µg/mL)
- IC50 [4]: > 100 µM

SMILES: Oc1c(Br)cc(Br)c2ccc(CNc3ccccc3)nc12
- MIC [1]: 0.78 µM (≈ 0.318 µg/mL)
- MIC [2]: 0.39 µM (≈ 0.159 µg/mL)
- MIC [3]: 0.15 µM (≈ 0.0612 µg/mL)
- selectivity ratio [9]: 667
- IC50 [4]: 100 µM

SMILES: CN[C@H](CC(C)C)C(=O)N[C@H]1C(=O)N[C@@H](CC(N)=O)C(=O)N[C@H]2C(=O)N[C@H]3C(=O)N[C@H](C(=O)N[C@H](C(=O)O)c4cc(O)cc(O)c4-c4cc3ccc4O)[C@H](O)c3ccc(c(Cl)c3)Oc3cc2cc(c3O[C@@H]2O[C@H](CO)[C@@H](O)[C@H](O)[C@H]2O[C@H]2C[C@](C)(N)[C@H](O)[C@H](C)O2)Oc2ccc(cc2Cl)[C@H]1O [VANCOMYCIN]
- MBEC [13]: 150 µM
- MBC [10]: 3 µM (≈ 4.35 µg/mL)
- hemolysis at 1 h, 200 µM [11]: ≤ 1%
- MIC [1]: > 100 µM
- MBEC [14]: >2000 µM
- MBC [15]: 3.9 µM (≈ 5.65 µg/mL)
- MBEC [12]: >2000 µM
- MBC [16]: > 200 µM

SMILES: CCCCCCCCCC(=O)N[C@@H](Cc1c[nH]c2ccccc12)C(=O)N[C@@H](CC(N)=O)C(=O)N[C@@H](CC(=O)O)C(=O)N[C@@H]1C(=O)NCC(=O)N[C@@H](CCCN)C(=O)N[C@@H](CC(=O)O)C(=O)N[C@H](C)C(=O)N[C@@H](CC(=O)O)C(=O)NCC(=O)N[C@H](CO)C(=O)N[C@@H]([C@H](C)CC(=O)O)C(=O)N[C@@H](CC(=O)c2ccccc2N)C(=O)O[C@@H]1C [DAPTOMYCIN]
- MIC [1]: 3.13 µM (≈ 5.07 µg/mL)
- MIC [2]: 3.13 µM (≈ 5.07 µg/mL)
- MIC [3]: 12.5 µM (≈ 20.3 µg/mL)

SMILES: CC(C)(C)OC(=O)NCC(=O)N1CCN(Cc2ccc3c(Br)cc(Br)c(O)c3n2)CC1
- MIC [1]: 12.5 µM (≈ 6.98 µg/mL)
- MIC [2]: 25 µM (≈ 14 µg/mL)
- MIC [3]: 9.38 µM (≈ 5.24 µg/mL)

SMILES: Oc1c(Br)cc(Br)c2ccc(CN3CCOCC3)nc12
- MBEC [13]: 1.17 µM
- MBC [10]: 4.69 µM (≈ 1.89 µg/mL)
- hemolysis at 1 h, 200 µM [11]: 2.6%
- MIC [1]: 3.13 µM (≈ 1.26 µg/mL)
- MBEC [14]: >200 µM
- Ratio [5]: 16 - 42
- Selectivity ratio [6]: > 2
- Selectivity ratio [7]: > 2
- MBC [15]: 25 µM (≈ 10.1 µg/mL)
- MIC [2]: 1.56 µM (≈ 0.627 µg/mL)
- Ratio [8]: 16 - 42
- MIC [3]: 0.59 µM (≈ 0.237 µg/mL)
- MBEC [12]: 2.35 µM
- selectivity ratio [9]: > 169
- IC50 [4]: > 100 µM
- MBC [16]: 1.56 µM (≈ 0.627 µg/mL)

SMILES: CC(C)(C)OC(=O)N1CCN(Cc2ccc3c(Br)cc(Br)c(O)c3n2)CC1
- MBEC [13]: 1.56 µM
- MBC [10]: 37.5 µM (≈ 18.8 µg/mL)
- hemolysis at 1 h, 200 µM [11]: 2.8%
- MIC [1]: 0.59 µM (≈ 0.296 µg/mL)
- MBEC [14]: 18.8 µM
- MBC [15]: 18.8 µM (≈ 9.42 µg/mL)
- MIC [2]: 0.78 µM (≈ 0.391 µg/mL)
- MIC [3]: 0.3 µM (≈ 0.15 µg/mL)
- MBEC [12]: 6.25 µM
- selectivity ratio [9]: > 333
- IC50 [4]: > 100 µM
- MBC [16]: 4.69 µM (≈ 2.35 µg/mL)

SMILES: COCCOCCOCCOCc1ccc2c(Br)cc(Br)c(O)c2n1
- MIC [2]: 2.35 µM (≈ 1.13 µg/mL)
- MIC [3]: 2.35 µM (≈ 1.13 µg/mL)
- IC50 [4]: 100 µM

SMILES: CCCc1ccc2c(Br)cc(Br)c(O)c2n1
- MIC [1]: 0.78 µM (≈ 0.269 µg/mL)
- MIC [2]: 0.39 µM (≈ 0.135 µg/mL)
- MIC [3]: 0.59 µM (≈ 0.204 µg/mL)
- selectivity ratio [9]: > 85
- IC50 [4]: > 50 µM

SMILES: c1ccc(CN(CCN(Cc2ccccn2)Cc2ccccn2)Cc2ccccn2)nc1
- MBC [10]: 250 µM (≈ 106 µg/mL)
- hemolysis at 1 h, 200 µM [11]: ≤ 1%
- MBEC [14]: >2000 µM
- MBC [15]: 375 µM (≈ 159 µg/mL)
- MIC [2]: 46.9 µM (≈ 19.9 µg/mL)
- MIC [3]: 12.5 µM (≈ 5.31 µg/mL)
- MBEC [12]: >2000 µM

SMILES: OCc1ccc2c(Br)cc(Br)c(O)c2n1
- MIC [1]: 25 µM (≈ 8.32 µg/mL)
- MIC [2]: 100 µM (≈ 33.3 µg/mL)
- MIC [3]: 37.5 µM (≈ 12.5 µg/mL)
- selectivity ratio [9]: > 2.7
- IC50 [4]: > 100 µM

SMILES: Cc1ccc2c(Br)cc(Br)c(O)c2n1 [BROQUINALDOL]
- MIC [1]: 3.13 µM (≈ 0.992 µg/mL)
- MIC [3]: 1.17 µM (≈ 0.371 µg/mL)
- IC50 [4]: > 100 µM

SMILES: C[C@H](NC(=O)OC(C)(C)C)C(=O)N1CCN(Cc2ccc3c(Br)cc(Br)c(O)c3n2)CC1
- MIC [1]: 6.25 µM (≈ 3.58 µg/mL)
- MIC [2]: 3.13 µM (≈ 1.79 µg/mL)
- MIC [3]: 3.13 µM (≈ 1.79 µg/mL)

Reference: ChEMBL document CHEMBL4152318, “Halogenated quinolines bearing polar functionality at the 2-position: Identification of new antibacterial agents with enhanced activity against Staphylococcus epidermidis” (Eur J Med Chem, 2018)
